Experimental data as given in ChEMBL document CHEMBL5360646, “Optimization of M3 Antagonist-PDE4 Inhibitor (MAPI) Dual Pharmacology Molecules for the Treatment of COPD” (J Med Chem, 2023).
≈ marks a conversion by molar mass, not a printed value. Calls of active or inactive are those of the source. The calls are words filed in the database; no cut-off is given here.

Tests used:
[1] = molecular target: T1, 3',5'-cyclic-AMP phosphodiesterase 4B (Homo sapiens, UniProt Q07343); assay: Inhibition of human recombinant PDE4B2 expressed in baculovirus expression system using cAMP as substrate incubated for 2 hrs by HTRF assay
[2] = Toxicity in pilocarpine hydrochloride induced salivation Sprague-Dawley rat model assessed as inhibition of salivary secretion at 3 mM,INH for 10 mins; details: in vivo, inhaled_or_intranasal, 10 min, 3000 µM
[3] = Solubility of compound simulated lung fluid at 1 mg/ml and measured at 0 hr by UPLC-MS analysis; type: physicochemical
[4] = Cmax in Sprague-Dawley rat plasma at 10 ug,IT(Intratracheal) by HPLC-MS/MS analysis; type: ADME, cell-free; set-up: dose 10 µg, route it(Intratracheal); details: inhaled or intranasal
[5] = molecular target: 3',5'-cyclic-AMP phosphodiesterase 4C (Homo sapiens, UniProt Q08493); assay: Inhibition of human recombinant PDE4C2 expressed in baculovirus expression system using cAMP as substrate by radiometric assay
Rattus norvegicus [6] = assay: Anti-inflammatory activity against OVA-sensitized Brown-Norway rat airway inflammation model assessed as inhibition of OVA-induced eosinophil influx at 1000 nmol/kg,IT(Intratracheal) pretreated 24 hrs prior to OVA challenge and measured after 48 hrs by automated cell counter analysis; type: functional; set-up: scale not given: the % may be the effect or the level left; details: time 72 hrs
[7] = Solubility of compound simulated lung fluid at 1 mg/ml and measured at 2 hr by UPLC-MS analysis; type: physicochemical
Rattus norvegicus [8] = assay: Anti-bronchospastic activity in carbachol-induced bronchospasm Sprague-Dawley rat model assessed as inhibition of carbachol-induced bronchoconstriction administered IT(Intratracheal) for 1 hr prior to carbachol challenge; type: functional; details: Rattus norvegicus, Sprague-Dawley, read-out: ED50
Rattus norvegicus [9] = assay: Anti-inflammatory activity against OVA-sensitized Brown-Norway rat airway inflammation model assessed as inhibition of OVA-induced eosinophil influx in BALF at 30 nmol/kg, IT(Intratracheal) pretreated 24 hrs prior to OVA challenge and measured after 48 hrs by automated cell counter analysis; type: functional; set-up: scale not given: the % may be the effect or the level left
Rattus norvegicus [10] = assay: Anti-bronchospastic activity in carbachol-induced bronchospasm Sprague-Dawley rat model assessed as inhibition of carbachol-induced bronchoconstriction at 30 nmol/kg, IT(Intratracheal) administered 1 hr prior to carbachol challenge; type: functional; set-up: scale not given: the % may be the effect or the level left
[11] = molecular target: T2, Muscarinic acetylcholine receptor M2 (Homo sapiens, UniProt P08172); assay: Displacement of [3H]N-methylscopolamine chloride from human muscarinic M2 receptor incubated for 2 hrs by radioligand binding assay
T2 sequence (P08172 whole entry): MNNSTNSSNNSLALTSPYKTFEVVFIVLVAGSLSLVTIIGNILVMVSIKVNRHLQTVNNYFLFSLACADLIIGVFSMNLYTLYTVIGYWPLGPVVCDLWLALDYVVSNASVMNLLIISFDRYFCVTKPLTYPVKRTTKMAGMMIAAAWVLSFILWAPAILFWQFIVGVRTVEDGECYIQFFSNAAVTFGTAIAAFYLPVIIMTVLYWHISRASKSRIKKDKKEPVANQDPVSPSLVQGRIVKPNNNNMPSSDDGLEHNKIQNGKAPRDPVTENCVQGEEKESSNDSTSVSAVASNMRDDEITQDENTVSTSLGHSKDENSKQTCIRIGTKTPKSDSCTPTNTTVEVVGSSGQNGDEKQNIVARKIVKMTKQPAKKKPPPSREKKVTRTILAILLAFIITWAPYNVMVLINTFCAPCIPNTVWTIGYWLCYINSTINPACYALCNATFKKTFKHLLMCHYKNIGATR

[12] = molecular target: 3',5'-cyclic-AMP phosphodiesterase 4D (Homo sapiens, UniProt Q08499); assay: Inhibition of human recombinant PDE4D3 expressed in baculovirus expression system using cAMP as substrate by radiometric assay
[13] = molecular target: 3',5'-cyclic-AMP phosphodiesterase 4A (Homo sapiens, UniProt P27815); assay: Inhibition of human recombinant PDE4A4 expressed in baculovirus expression system using cAMP as substrate by radiometric assay
[14] = Ratio of ED50 for Anti-inflammatory activity against OVA-sensitized Brown-Norway rat airway inflammation model to ED50 for Anti-bronchospastic activity in carbachol-induced bronchospasm Sprague-Dawley rat model; type: functional
Rattus norvegicus [15] = assay: Anti-inflammatory activity against OVA-sensitized Brown-Norway rat airway inflammation model assessed as inhibition of OVA-induced eosinophil influx administered IT(Intratracheal) 2 hrs prior to OVA challenge; type: functional
[16] = Toxicity in ferret assessed as emetic response at 10 nmol/kg,po and measured for 4 hrs by behavioral analysis; set-up: species or system Mustela putorius furo; details: in vivo
[17] = Toxicity in ferret assessed as appearance of nausea-like behavior at 10 nmol/kg, IT(Intratracheal) and measured for 4 hrs by behavioral analysis; set-up: species or system Mustela putorius furo; details: in vivo, inhaled_or_intranasal
[18] = Cmax in Sprague-Dawley rat lung at 10 ug,IT(Intratracheal) by HPLC-MS/MS analysis; type: ADME, tissue-based; set-up: dose 10 µg, route it(Intratracheal); details: inhaled or intranasal
[19] = AUC (0 to infinity) in Sprague-Dawley rat lung at 10 ug,IT(Intratracheal) by HPLC-MS/MS analysis; type: ADME, tissue-based; set-up: dose 10 µg, route it(Intratracheal); details: in vivo, inhaled_or_intranasal
[20] = Toxicity in ferret assessed as emetic response at 10 nmol/kg, IT(Intratracheal) and measured for 4 hrs by behavioral analysis; set-up: species or system Mustela putorius furo; details: in vivo, inhaled_or_intranasal
[21] = Toxicity in pilocarpine hydrochloride induced salivation Sprague-Dawley rat model assessed as inhibition of salivary secretion at 1 mM,INH for 10 mins; details: in vivo, inhaled_or_intranasal, 1000 µM
[22] = molecular target: T1, 3',5'-cyclic-AMP phosphodiesterase 4B; assay: Inhibition of human recombinant PDE4B2 expressed in baculovirus expression system using cAMP as substrate by radiometric assay
Rattus norvegicus [23] = assay: Anti-bronchospastic activity in carbachol-induced bronchospasm Sprague-Dawley rat model assessed as inhibition of carbachol-induced bronchoconstriction at 30 nmol/kg, IT(Intratracheal) administered 16 hr prior to carbachol challenge; type: functional; set-up: scale not given: the % may be the effect or the level left
[24] = Antiinflammatory activity against LPS-stimulated human PBMC cells assessed reduction in TNFalpha level incubated for 18 hrs by ELISA analysis; type: functional, cell-based; details: Homo sapiens, PBMC, 18 h
Rattus norvegicus [25] = assay: Anti-inflammatory activity against OVA-sensitized Brown-Norway rat airway inflammation model assessed as inhibition of OVA-induced eosinophil influx at 1 nmol/kg,IT(Intratracheal) pretreated 2 hrs prior to OVA challenge by automated cell counter analysis; type: functional; set-up: scale not given: the % may be the effect or the level left
[26] = molecular target: cGMP-inhibited 3',5'-cyclic phosphodiesterase 3A (Homo sapiens) (UniProt Q14432); assay: Inhibition of human recombinant PDE3A expressed in baculovirus expression system using cAMP as substrate at 1 uM by radiometric assay
[27] = molecular target: Dual specificity calcium/calmodulin-dependent 3',5'-cyclic nucleotide phosphodiesterase 1A (Homo sapiens) (UniProt P54750); assay: Inhibition of human recombinant PDE1A3 expressed in baculovirus expression system using cAMP as substrate at 1 uM by radiometric assay
[28] = molecular target: cGMP-specific 3',5'-cyclic phosphodiesterase (Homo sapiens) (UniProt O76074); assay: Inhibition of human recombinant PDE5 catalytic domain expressed in baculovirus expression system using […] as substrate at 1 uM by radiometric assay
Rattus norvegicus [29] = assay: Anti-inflammatory activity against OVA-sensitized Brown-Norway rat airway inflammation model assessed as inhibition of OVA-induced eosinophil influx at 100 nmol/kg,IT(Intratracheal) pretreated 2 hrs prior to OVA challenge by automated cell counter analysis; type: functional; set-up: scale not given: the % may be the effect or the level left
Rattus norvegicus [30] = assay: Anti-inflammatory activity against OVA-sensitized Brown-Norway rat airway inflammation model assessed as inhibition of OVA-induced eosinophil influx administered IT(Intratracheal) pretreated 24 hrs prior to OVA challenge and measured after 48 hrs by automated cell counter analysis; type: functional; details: time 72 hrs
[31] = AUClast in Sprague-Dawley rat plasma at 10 ug,IT(Intratracheal) by HPLC-MS/MS analysis; type: ADME, cell-free; set-up: dose 10 µg, route it(Intratracheal); details: inhaled or intranasal
Rattus norvegicus [32] = assay: Anti-inflammatory activity against OVA-sensitized Brown-Norway rat airway inflammation model assessed as inhibition of OVA-induced eosinophil influx at 100 nmol/kg,IT(Intratracheal) pretreated 24 hrs prior to OVA challenge and measured after 48 hrs by automated cell counter analysis; type: functional; set-up: scale not given: the % may be the effect or the level left; details: time 72 hrs
[33] = molecular target: Muscarinic acetylcholine receptor M3 (Homo sapiens, UniProt P20309); assay: Displacement of [3H]N-methylscopolamine chloride from human muscarinic M3 receptor incubated for 2 hrs by radioligand binding assay
[34] = Toxicity in ferret assessed as appearance of nausea-like behavior at 10 nmol/kg,po and measured for 4 hrs by behavioral analysis; set-up: species or system Mustela putorius furo; details: in vivo
[35] = Half life in Sprague-Dawley rat lung at 10 ug,IT(Intratracheal) by HPLC-MS/MS analysis; type: ADME, tissue-based; details: inhaled or intranasal, dose 10 µg
Rattus norvegicus [36] = assay: Anti-inflammatory activity against OVA-sensitized Brown-Norway rat airway inflammation model assessed as inhibition of OVA-induced eosinophil influx at 10 nmol/kg,IT(Intratracheal) pretreated 2 hrs prior to OVA challenge by automated cell counter analysis; type: functional; set-up: scale not given: the % may be the effect or the level left
Trachea = assay: Bronchoconstriction activity in Sprague-Dawley rat trachea assessed as inhibition of carbachol-induced tracheal contraction; type: functional, tissue-based; details: Rattus norvegicus, Sprague-Dawley, Trachea
Rattus norvegicus [37] = assay: Anti-inflammatory activity against OVA-sensitized Brown-Norway rat airway inflammation model assessed as inhibition of OVA-induced eosinophil influx at 10 nmol/kg,IT(Intratracheal) pretreated 24 hrs prior to OVA challenge and measured after 48 hrs by automated cell counter analysis; type: functional; set-up: scale not given: the % may be the effect or the level left

T1 sequence (Q07343 whole entry): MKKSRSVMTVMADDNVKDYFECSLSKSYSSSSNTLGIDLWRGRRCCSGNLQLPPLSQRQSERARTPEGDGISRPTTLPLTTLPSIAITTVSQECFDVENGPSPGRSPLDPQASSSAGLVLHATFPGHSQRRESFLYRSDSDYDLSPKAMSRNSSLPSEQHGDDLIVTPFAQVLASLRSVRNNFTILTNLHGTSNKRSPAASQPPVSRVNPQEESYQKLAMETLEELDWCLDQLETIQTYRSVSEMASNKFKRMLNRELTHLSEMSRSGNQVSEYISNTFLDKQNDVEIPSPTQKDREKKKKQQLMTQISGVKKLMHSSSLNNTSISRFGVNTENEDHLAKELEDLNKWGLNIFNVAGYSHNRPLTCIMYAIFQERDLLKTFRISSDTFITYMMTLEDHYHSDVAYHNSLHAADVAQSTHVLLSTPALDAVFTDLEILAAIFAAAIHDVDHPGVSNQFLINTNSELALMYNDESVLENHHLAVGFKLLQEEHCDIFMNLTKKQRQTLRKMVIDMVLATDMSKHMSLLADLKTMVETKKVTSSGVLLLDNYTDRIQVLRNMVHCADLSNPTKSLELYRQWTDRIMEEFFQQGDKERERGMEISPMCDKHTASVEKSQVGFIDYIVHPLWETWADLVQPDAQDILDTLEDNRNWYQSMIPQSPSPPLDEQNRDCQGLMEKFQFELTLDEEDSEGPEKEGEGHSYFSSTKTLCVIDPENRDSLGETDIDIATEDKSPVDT
Sequence of cGMP-inhibited 3',5'-cyclic phosphodiesterase 3A (Homo sapiens) (Q14432 whole entry): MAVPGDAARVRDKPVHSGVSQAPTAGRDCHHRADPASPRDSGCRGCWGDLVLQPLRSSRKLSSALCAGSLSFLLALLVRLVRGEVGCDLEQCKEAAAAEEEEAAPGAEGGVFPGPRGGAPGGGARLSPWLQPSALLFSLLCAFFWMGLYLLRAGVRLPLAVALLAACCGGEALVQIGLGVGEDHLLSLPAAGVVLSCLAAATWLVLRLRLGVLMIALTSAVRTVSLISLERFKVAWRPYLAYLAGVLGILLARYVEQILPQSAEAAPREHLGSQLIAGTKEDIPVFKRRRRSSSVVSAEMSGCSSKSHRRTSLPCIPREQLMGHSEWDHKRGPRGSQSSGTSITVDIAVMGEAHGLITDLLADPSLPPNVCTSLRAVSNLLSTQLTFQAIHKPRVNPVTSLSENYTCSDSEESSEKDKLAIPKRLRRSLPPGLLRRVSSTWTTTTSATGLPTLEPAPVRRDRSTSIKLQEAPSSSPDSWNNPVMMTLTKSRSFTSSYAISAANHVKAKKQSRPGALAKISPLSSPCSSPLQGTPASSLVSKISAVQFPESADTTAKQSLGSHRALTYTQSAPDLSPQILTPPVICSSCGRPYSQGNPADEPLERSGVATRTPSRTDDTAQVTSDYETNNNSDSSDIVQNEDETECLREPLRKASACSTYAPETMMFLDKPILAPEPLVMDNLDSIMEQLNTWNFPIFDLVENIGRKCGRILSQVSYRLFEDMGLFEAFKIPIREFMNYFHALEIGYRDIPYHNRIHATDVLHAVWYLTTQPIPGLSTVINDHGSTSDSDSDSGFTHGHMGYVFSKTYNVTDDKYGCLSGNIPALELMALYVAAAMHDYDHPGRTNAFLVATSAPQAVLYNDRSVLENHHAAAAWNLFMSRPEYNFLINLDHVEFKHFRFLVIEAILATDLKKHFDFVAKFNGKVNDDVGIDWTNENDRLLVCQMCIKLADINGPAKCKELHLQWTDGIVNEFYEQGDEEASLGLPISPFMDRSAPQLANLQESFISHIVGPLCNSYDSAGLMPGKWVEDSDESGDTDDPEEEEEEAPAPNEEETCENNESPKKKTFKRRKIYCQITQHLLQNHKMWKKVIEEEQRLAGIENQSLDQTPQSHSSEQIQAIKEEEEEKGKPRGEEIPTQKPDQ
Sequence of 3',5'-cyclic-AMP phosphodiesterase 4A (P27815 whole entry): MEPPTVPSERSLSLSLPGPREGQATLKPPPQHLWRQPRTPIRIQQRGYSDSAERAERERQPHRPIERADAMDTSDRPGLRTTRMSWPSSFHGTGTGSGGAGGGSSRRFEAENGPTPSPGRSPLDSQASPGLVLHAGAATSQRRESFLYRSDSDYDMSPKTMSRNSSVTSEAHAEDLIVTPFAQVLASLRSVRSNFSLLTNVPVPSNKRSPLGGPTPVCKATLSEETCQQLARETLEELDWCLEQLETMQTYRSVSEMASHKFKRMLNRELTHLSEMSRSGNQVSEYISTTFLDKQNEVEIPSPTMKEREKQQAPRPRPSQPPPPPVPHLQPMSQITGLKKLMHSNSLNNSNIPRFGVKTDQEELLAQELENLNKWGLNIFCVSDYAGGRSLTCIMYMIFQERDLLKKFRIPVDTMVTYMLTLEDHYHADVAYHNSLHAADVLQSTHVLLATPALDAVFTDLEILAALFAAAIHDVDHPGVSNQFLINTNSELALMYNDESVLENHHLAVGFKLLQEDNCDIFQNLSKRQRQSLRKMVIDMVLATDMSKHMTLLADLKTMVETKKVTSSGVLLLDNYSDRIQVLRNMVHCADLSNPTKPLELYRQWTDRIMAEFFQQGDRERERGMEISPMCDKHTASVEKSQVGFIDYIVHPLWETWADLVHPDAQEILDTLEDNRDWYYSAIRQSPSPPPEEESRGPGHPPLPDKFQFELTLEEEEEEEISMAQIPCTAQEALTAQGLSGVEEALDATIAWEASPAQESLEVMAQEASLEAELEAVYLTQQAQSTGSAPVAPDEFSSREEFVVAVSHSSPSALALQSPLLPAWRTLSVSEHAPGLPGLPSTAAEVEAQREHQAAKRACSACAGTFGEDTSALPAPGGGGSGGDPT
Sequence of Muscarinic acetylcholine receptor M3 (P20309 whole entry): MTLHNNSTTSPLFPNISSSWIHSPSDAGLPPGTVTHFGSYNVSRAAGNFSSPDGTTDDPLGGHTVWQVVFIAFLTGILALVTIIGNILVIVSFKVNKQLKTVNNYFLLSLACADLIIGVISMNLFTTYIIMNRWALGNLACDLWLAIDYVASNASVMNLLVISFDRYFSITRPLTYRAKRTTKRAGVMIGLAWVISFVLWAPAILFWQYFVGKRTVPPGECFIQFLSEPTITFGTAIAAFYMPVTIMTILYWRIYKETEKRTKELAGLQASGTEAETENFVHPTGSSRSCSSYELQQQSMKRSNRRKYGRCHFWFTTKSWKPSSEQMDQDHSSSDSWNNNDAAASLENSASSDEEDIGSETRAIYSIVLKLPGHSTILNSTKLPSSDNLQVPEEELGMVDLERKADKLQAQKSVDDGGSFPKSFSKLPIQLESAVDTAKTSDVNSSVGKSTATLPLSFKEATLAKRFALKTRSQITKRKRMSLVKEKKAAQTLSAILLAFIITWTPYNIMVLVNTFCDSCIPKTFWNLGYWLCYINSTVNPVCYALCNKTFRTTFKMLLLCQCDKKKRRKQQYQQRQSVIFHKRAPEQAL
Sequence of 3',5'-cyclic-AMP phosphodiesterase 4D (Q08499 whole entry): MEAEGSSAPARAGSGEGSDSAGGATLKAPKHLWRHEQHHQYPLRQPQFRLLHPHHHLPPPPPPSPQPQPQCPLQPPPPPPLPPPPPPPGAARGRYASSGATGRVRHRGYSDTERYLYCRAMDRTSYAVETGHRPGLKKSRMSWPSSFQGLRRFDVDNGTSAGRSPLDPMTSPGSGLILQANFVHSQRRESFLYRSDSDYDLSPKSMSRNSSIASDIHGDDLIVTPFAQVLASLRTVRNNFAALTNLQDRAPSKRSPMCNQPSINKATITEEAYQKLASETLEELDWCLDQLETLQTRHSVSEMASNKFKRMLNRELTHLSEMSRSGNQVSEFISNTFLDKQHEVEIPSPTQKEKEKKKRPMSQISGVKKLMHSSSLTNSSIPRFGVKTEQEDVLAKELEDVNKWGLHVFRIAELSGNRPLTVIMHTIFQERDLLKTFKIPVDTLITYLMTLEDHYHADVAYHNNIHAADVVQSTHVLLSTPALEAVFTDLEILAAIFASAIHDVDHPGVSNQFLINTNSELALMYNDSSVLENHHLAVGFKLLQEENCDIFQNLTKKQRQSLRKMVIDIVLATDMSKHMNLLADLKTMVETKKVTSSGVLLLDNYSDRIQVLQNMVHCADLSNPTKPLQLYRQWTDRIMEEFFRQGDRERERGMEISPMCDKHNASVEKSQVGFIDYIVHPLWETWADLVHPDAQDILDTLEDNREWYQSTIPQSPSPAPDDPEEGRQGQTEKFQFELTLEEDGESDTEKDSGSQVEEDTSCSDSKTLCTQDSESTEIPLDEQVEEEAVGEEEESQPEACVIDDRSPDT
Sequence of 3',5'-cyclic-AMP phosphodiesterase 4C (Q08493 whole entry): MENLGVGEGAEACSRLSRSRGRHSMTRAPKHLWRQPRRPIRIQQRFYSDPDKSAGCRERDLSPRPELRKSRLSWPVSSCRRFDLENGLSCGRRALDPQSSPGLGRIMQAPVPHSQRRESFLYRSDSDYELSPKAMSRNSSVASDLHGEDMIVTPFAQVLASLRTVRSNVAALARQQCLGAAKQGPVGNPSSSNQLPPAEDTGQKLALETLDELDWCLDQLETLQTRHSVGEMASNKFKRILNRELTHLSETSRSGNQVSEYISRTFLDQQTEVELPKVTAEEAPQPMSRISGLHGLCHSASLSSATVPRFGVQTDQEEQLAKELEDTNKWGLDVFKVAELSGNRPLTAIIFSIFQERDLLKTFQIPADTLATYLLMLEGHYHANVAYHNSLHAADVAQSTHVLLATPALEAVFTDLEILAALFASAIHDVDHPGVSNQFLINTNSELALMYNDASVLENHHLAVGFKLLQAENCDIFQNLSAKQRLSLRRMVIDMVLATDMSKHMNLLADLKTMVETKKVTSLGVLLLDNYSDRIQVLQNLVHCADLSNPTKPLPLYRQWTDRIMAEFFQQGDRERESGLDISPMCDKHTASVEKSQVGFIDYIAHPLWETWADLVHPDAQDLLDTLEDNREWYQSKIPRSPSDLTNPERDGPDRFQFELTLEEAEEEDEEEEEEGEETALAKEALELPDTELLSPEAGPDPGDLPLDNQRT

CCOc1cc([C@H](Cc2c(Cl)c[n+]([O-])cc2Cl)OC(=O)c2ccc(CN[C@@](CO)(C(=O)O[C@H]3CN4CCC3CC4)c3ccccc3)s2)ccc1OC
IC50 [1]: 1 nM
Activity [2]: Non-Toxic
solubility at 0 h [3]: 3.3 µg/mL (≈ 4.28 µM)
Cmax [4]: 2 ng/mL
IC50 [5]: 0.0251 nM
Activity (Rattus norvegicus [6]): >100%
solubility at 2 h [7]: 1.6 µg/mL (≈ 2.08 µM)
ED50 (Rattus norvegicus [8]): 0.007 µmol/kg
Activity (Rattus norvegicus [9]): 63%
Activity (Rattus norvegicus [10]): 80%
Ki [11]: 10 nM
IC50 [12]: 0.398 nM
IC50 [13]: 0.0316 nM
Ratio ED50 [14]: 1
ED50 (Rattus norvegicus [15]): 0.007 µmol/kg
Activity [16]: Non-Toxic
Activity [17]: Non-Toxic
Cmax [18]: 6270 ng/g
AUC [19]: 9242 ng·h/g
Activity [20]: Non-Toxic
Activity [21]: Non-Toxic
IC50 [22]: 0.0398 nM
Activity (Rattus norvegicus [23]): 83%
IC50 [24]: 0.316 nM
Activity (Rattus norvegicus [25]): 28%
inhibition [26]: inactive
inhibition [27]: inactive
inhibition [28]: inactive
Activity (Rattus norvegicus [29]): 92%
ED50 (Rattus norvegicus [30]): 0.016 µmol/kg
AUC(0-t) [31]: 3.7 ng·h/mL
Activity (Rattus norvegicus [32]): 72%
Ki [33]: 0.631 nM
Activity [34]: Non-Toxic
half-life [35]: 4.3 h
Activity (Rattus norvegicus [36]): 60%
IC50 (Trachea): 12.6 nM
Activity (Rattus norvegicus [37]): 45%
